In patent US5658913A, “Chemopreventive compounds and a preparation method and use thereof” (Kim; Nak Doo, priority 1993, dated 1997):

Assays:
Format in all cases: in vivo, Sprague-Dawley rat
[1] = system: p-nitrophenol hydroxylase; experiment: p-Nitrophenol hydroxylase activity of hepatic microsomes (Experimental Example 1(2-1)); settings: 200 mg/kg
Procedure: In order to examine the effect of the compound of the present invention on the activity of the enzymes involved in phase I reaction, the experiments were carried out as follows:
(§1) Six groups of Sprague-Dawley rat weighing 190±30 g were administered with pyrazine(Groups 1 to 3) or the compound prepared in Example 1-1(Groups 4 to 6) in a dose of 200 mg/kg for 1, 2 or 3 days. After the hepatic microsomes were separated by following the same procedure as in the above (1), activity of p-nitrophenol hydrolase was measured according to the method of Koop(Dennis R. Koop, Hydroxylation p-nitrophenol by rabbit ethanol inducible cytochrome P-450 isozyme 3a, Molecular Pharmacol. 29, 399-404(1986)).
Thus, 1 mg of microsomes and 1mM p-nitrophenol were added to 0.6 ml of 0.1M potassium phosphate buffer(pH 6.8) to make the total volume of 0.9 ml. The resulting mixture was preliminarily reacted in a 37° C. incubator for 2 minutes and started to react while adding 1 mM NADPH(0.1 ml). After 3 minutes, 0.5 ml of 0.6N perchloric acid was added to develop a color and the absorbance at 546 nm was measured at once. The enzyme activity was expressed in terms of mole concentration of 4-nitrocatechol, the product of reaction for 1 minute.

[2] = system: aniline hydroxylase; experiment: Aniline hydroxylase activity of hepatic microsomes (Experimental Example 1(2-2)); settings: 200 mg/kg
Procedure: as §1
The same procedure as in the above (2-1) was carried out to measure the activity of aniline hydroxylase. The activity of aniline hydroxylase was measured according to the method of Mieyal(John J. Mieyal, Acceleration of the autooxidation of human oxyhemoglobin by aniline and its relation to hemoglobin-catalyzed aniline hydroxylation, J. Biol. Chem. 251, 3442-3446(1976)).
Thus, 1 mg of microsomes and 5 mM aniline were added to 0.6 ml of 0.1M potassium phosphate buffer(pH 6.8) to make the total volume of 0.9 ml. 1 mM NADPH was added to make the total volume of 1.0 ml and the resulting mixture was reacted at 37° C. After 10 minutes, 20% trichloroacetic acid was added to stop the reaction and the reaction mixture was centrifuged. To 1 ml of supernatant were added 0.1 ml of 5% phenol and 0.1 ml of 2.5N sodium carbonate, dissolved in 0.1N NaOH. The mixture was allowed to stand for 30 minutes to develop a color and the absorbance at 630 nm was measured at once. The enzyme activity was expressed in terms of mole concentration of 4-aminophenol, the product of reaction for 1 minute.

[3] = system: N-nitrosodimethylamine demethylase; experiment: N-Nitrosodimethylamine demethylase activity of hepatic microsomes (Experimental Example 1(2-3)); settings: 200 mg/kg, 1 to 3 days, time-dependent
Procedure: as §1
The same procedure as in the above (2-1) was carried out to measure the activity of N-nitrosodimethyl demethylase. The activity of N-nitrosodimethyl demethylase was measured according to the method of Kaul and Novak(Kaul, L. L. and Novak, R. F., Induction of rabbit hepatic microsomal cytochrome P-450 by imidazole; enhanced metabolic activity and altered substrate specificity, Arch. Biochem. Biophys., 235, 470-481(1984)).
Thus, 10 mM N-Nitrosodimethylamine and 0.6 ml of 0.1M potassium phosphate buffer(pH 7.4) were added to 1 mg of microsomes, and 1 mM NADPH was added to make the total volume of 1 ml. After the mixture was reacted at 37° C. for 30 minutes, 20% trichloroacetic acid was added to stop the reaction and the reaction mixture was centrifuged. […] The mixture was allowed to stand at 37° C. for 45 minutes to develop a color and the absorbance at 412 nm was measured. […]

[4] = system: microsomal epoxide hydrolase (mEH); experiment: Western blot analysis for microsomal epoxide hydrolase (Experimental Example 3(1)); settings: 200 mg/kg i.p. for 1, 2 or 3 days; FIG. 6
Procedure: The hepatic microsomes were separated and subjected to SDS-polyacrylamide gel electrophoresis by following the same procedure as in the above Experimental Example 1(1). Thereafter, western blot analysis for microsomal epoxide hydrolase(mEH) was carried out as follows:
Streptavidine-horseradish peroxidase and 4-chloro-1-naphtol were added to the reaction mixture to develop a color.

`C=CCSc1cnccn1` [Example 1-1, 2-(2-propenylthio)pyrazine] was tested, and the “decrease in activity of p-nitrophenol hydrolase compared to pyrazine groups” value ([1]; 1 day) was 64%, the “decrease in activity of p-nitrophenol hydrolase compared to pyrazine groups” value ([1]; 2 days) was 73% and the “decrease in activity of p-nitrophenol hydrolase compared to pyrazine groups” value ([1]; 3 days) was 82%. The “decrease in activity of aniline hydroxylase compared to pyrazine groups” value ([2]; 1 day) was 57%, the “decrease in activity of aniline hydroxylase compared to pyrazine groups” value ([2]; 2 days) was 80% and the “decrease in activity of aniline hydroxylase compared to pyrazine groups” value ([2]; 3 days) was 88%. For the same compound, the “decrease in activity of N-nitrosodimethylamine demethylase compared to pyrazine groups” value [3] was 49-73% and the “expression of mEH compared to control or pyrazine groups” value [4] was “significant increase in the expression of mEH”.
